In ChEMBL document CHEMBL5725500, “Substituted spiropiperidinyl compounds useful as GPR120 agonists” (2017):

Molecular target: T1, Free fatty acid receptor 4 (Homo sapiens, UniProt Q5NUL3)
T1 sequence (Q5NUL3 whole entry): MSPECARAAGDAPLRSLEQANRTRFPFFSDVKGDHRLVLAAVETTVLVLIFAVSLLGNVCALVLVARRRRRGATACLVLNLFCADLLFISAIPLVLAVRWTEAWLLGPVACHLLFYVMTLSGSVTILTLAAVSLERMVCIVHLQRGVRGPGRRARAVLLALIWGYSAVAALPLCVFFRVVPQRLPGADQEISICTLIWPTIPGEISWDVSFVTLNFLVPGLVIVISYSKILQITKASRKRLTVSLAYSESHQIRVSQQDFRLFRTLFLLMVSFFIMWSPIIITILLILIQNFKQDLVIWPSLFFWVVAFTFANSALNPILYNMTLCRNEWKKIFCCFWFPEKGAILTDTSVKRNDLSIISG
Test: FLIPR Assay: On the day before the measurement day, CHO cells expressing human GPR120 were plated at 10000 cells per well in a 384-well black plate (#3702, Corning) and incubated overnight in a CO2 incubator. On the day of the measurement, 4 μM Fluo-4 AM (fluorescence calcium indicator reagent) was incubated to be introduced into the human GPR120 expression CHO cells in the presence of 0.08% Pluronic F-127 in a CO2 incubator for 90 minutes. To the cells was added the test compound diluted with HBSS solution containing 20 mM HEPES and 2.5 mM probenecid. Variations in the intracellular calcium concentration were measured by Fluorescence Imaging Plate Reader (FLIPR; Molecular Devices) to examine the agonist action, and EC50 values were calculated.
Format: cell-based

Row | Structure (SMILES) | EC50 [µM]
1 | Cc1cccc(Oc2ccc(C#N)c(N3CCC4(CCC(CC(=O)O)CC4)CC3)c2)n1 | 4.22
2 | O=C(O)C[C@@H]1CCC2(CCN(c3cc(OC4CCC4)ccc3F)CC2)OC1 | 3.24
3 | COc1cc(F)cc(N2CCC3(CC2)CC(CC(=O)O)CO3)c1 (configuration not stated) | 2.38
4 | Cc1ccnc(Oc2ccc(C#N)c(N3CCC4(CCC(CC(=O)O)CC4)CC3)c2)c1 | 4.97

Other lines, results leading:

Row | EC50 [µM] | Structure (SMILES)
5 | 0.472 | OCCC1CCC2(CC1)CCN(c1cc(OC(F)(F)F)ccc1Cl)CC2
6 | 1.21 | O=C(O)CC1CCC2(CCN(c3cc(OC(F)(F)F)ccc3F)CC2)OC1 (configuration not stated)
7 | 1.65 | O=C(O)C[C@H]1CCC2(CCN(c3cc(OC4CCC4)ccc3Cl)CC2)OC1
